From US12344879B2, “Transgenic bacteria with expanded amino acid usage and nucleic acid molecules for use in the same” (BOARD OF REGENTS, THE UNIVERSITY OF TEXAS SYSTEM, priority 2015, dated 2025)

Tests used:
[1] = test system: NMC-A β-lactamase reporter (C69X C238X); assay: NMC-A β-lactamase reporter assay in strain lacking release factor 1; type: cell-based, E. coli RTΔA; details: RF1-deficient background, two amber codons
[2] = test system: Pseudomonas aeruginosa azurin position 112; assay: Selenocysteine incorporation into azurin C112X by intact mass spectrometry; design: species or system E. coli RTΔA.2; details: peak areas of the mass spectrum
Protocol: RTΔA.2 transformants containing pAz-C112X-AU and pRSF-eSelAK were cultured as described previously with the exception that 20 μM Na2SeO3 was added for the 24 hour incubation. Cells were harvested by centrifugation and the periplasmic fraction isolated. Briefly, cell pellets were resuspended in 50 mL of 100 mM Tris and 0.75 M sucrose at pH 7.5. Following addition of lysozyme to 1 mg·mL^−1 and protease inhibitor cocktail cells were gently agitated for 20 min at 4° C. 50 mL of 1 mM EDTA was added and samples incubated again for 20 minutes. EDTA was neutralized by addition of 3.5 mL 0.5M MgCl2 during a further 20 min incubation. Spheroblasts were removed by centrifugation at 35000×g for 30 min, the periplasmic fraction passed through a 0.2 µm filter and mixed with imidazole stock solution to a final concentration of 20 mM. Seleno-azurin was recovered by IMAC using Ni-NTA resin and gravity flow columns. Eluate was concentrated and dialyzed against 50 mM NH4Ac pH 6.5 prior to the isolation of seleno-azurin by size exclusion FPLC. […]
Intact protein samples were analyzed using methods described previously (Ellefson et al., 2014). […] UVPD mass spectra were also deconvoluted using Xtract and then analyzed using ProsightPC 3.0. […] Incorporation efficiencies were calculated by dividing the area of the modified protein peak by the summed areas of the unmodified protein peak and the modified protein peak. […]

tRNA^SecUx: Evolved E. coli tRNA^Sec variant with the G7-C66:U49-G65:C50-U64 antideterminant sequence and CUA anticodon
formation of functional diselenide bond (U69 and U238) in NMC-A [1]: could now support the formation of a functional diselenide bond
selenocysteine incorporation efficiency in azurin [2]: greater than 76%
